Source: patent US10239887B2, “Positive allosteric modulators of the muscarinic acetylcholine receptor M4” (Vanderbilt University, priority 2016, dated 2019)
Counter-ions that a name gives are not always drawn.

Molecular target: T1, human mAChR M4 (Homo sapiens, UniProt P08173)
T1 sequence (P08173 1-479): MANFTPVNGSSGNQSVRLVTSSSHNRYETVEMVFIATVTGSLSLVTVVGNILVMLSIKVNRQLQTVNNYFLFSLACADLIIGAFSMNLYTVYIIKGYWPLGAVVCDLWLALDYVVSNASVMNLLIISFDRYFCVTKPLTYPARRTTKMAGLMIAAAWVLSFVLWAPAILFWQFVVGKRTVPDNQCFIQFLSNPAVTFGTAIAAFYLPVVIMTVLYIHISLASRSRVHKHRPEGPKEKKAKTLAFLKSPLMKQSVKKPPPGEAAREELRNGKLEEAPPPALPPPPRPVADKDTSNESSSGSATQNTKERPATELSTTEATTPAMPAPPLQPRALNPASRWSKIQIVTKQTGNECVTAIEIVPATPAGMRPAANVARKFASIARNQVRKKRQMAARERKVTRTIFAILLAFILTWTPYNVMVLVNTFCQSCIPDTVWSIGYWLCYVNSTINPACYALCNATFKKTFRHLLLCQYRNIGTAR
Assay: mAChR M4 cell-based functional assay (calcium flux), human M4
Conditions: for Emax: % ACh maximum at 30 μM

[1] = Human M4 EC50 (nM), Table 10, calcium flux, PAM activity with EC20 acetylcholine
[2] = Human M4 EC50 (nM), Table 11, calcium flux, PAM activity with EC20 acetylcholine
[3] = Human M4 EC50, CHO-K1 hM4-Gqi5 cells, calcium flux, increase in EC20 acetylcholine response

Row | EC50 [1] | Emax (Table 10) | SMILES | other results
1 | 135 nM | 53.3% | Cc1nnc2sc3c(NCc4cccc(C5(O)CCC5)c4)ncnc3c2c1C [Compound 102, 1-[3-[[(3,4-dimethylpyrimido [4′,5′:4,5]thieno[2,3-c]pyridazin-8-yl)amino]methyl]phenyl] cyclobutanol] | 
2 | 207 nM | 78.8% | Cc1nnc2sc3c(NCc4ccc(C(C)(C)O)cc4F)ncnc3c2c1C [Compound 107, 2-[4-[[(3,4-dimethylpyrimido [4′,5′:4,5]thieno[2,3-c]pyridazin-8-yl)amino]methyl]-3-fluoro-phenyl]propan-2-ol] | 
3 | 851 nM | 85.9% | Cc1nnc2sc3c(NCc4ccc(-c5ccn(C)n5)cc4)ncnc3c2c1C [Compound 192, 3,4-dimethyl-N-[[4-(1-methylpyrazol-3-yl)phenyl]methyl]pyrimido [4′,5′:4,5]thieno[2,3-c] pyridazin-8-amine] | 
4 | 529 nM | 92% | Cc1nnc2sc3c(NCc4ccc(C(=O)N5CC[C@H](F)C5)cc4)ncnc3c2c1C [Compound 128, [4-[[(3,4-dimethylpyrimido [4′,5′:4,5]thieno[2,3-c]pyridazin-8-yl)amino]methyl]phenyl]-[(3S)-3-fluoropyrrolidin-1-yl]methanone] | 
5 | 139 nM | 70.5% | Cc1nnc2sc3c(NC4CN(C(=O)OC(C)(C)C)C4)ncnc3c2c1C [Compound 87, tert-butyl 3-[(3,4-dimethylpyrimido [4′,5′:4,5]thieno[2,3-c]pyridazin-8-yl)amino] azetidine-1-carboxylate] | 
6 |  | 71.6% | COc1ccc(CNc2ncnc3c2sc2nnc(C)c(C)c23)cc1F [Compound 78, N-(3-fluoro-4-methoxybenzyl)-3,4-dimethylpyrimido [4′,5′:4,5]thieno[2,3-c] pyridazin-8-amine] | 
7 | 105 nM | 74.9% | Cc1nnc2sc3c(NCc4ccc(C(=O)NC5CCC5)cc4)ncnc3c2c1C [Compound 150, N-cyclobutyl-4-[[(3,4-dimethylpyrimido [4′,5′:4,5]thieno[2,3-c]pyridazin-8-yl)amino]methyl]benzamide] | 

Continued, compound first:

Row | SMILES | EC50 [1] | Emax (Table 10) | other results
8 | COc1nnc2sc3c(NC4CN(c5ncc(C(F)(F)F)cn5)C4)ncnc3c2c1C [Compound 282, 3-methoxy-4-methyl-N-[1-[5-(trifluoromethyl)pyrimidin-2-yl]azetidin-3-yl]pyrimido[4′,5′:4,5]thieno [2,3-c]pyridazin-8-amine] | 1140 nM | 90.9% | 
9 | Cc1nnc2sc3c(NCc4ccc(-c5nccs5)cc4)ncnc3c2c1C [Compound 326, 3,4-dimethyl-N-[(4-thiazol-2-ylphenyl)methyl]pyrimido[4′,5′:4,5] thieno[2,3-c]pyridazin-8-amine] |  |  | EC50 [2]: 1070 nM; Emax (Table 11): 64.9%
10 | Cc1nnc2sc3c(NCc4ccc(C(=O)N5CCC(F)(F)C5)cc4)ncnc3c2c1C [Compound 134, (3,3-difluoropyrrolidin-1-yl)-[4-[[(3,4-dimethylpyrimido [4′,5′:4,5]thieno[2,3-c]pyridazin-8-yl)amino]methyl]phenyl]methanone] | 469 nM | 91.8% | 
11 | Cc1nnc2sc3c(NCc4ccc(C(=O)NC(C)C)cc4)ncnc3c2c1C [Compound 155, 4-[[(3,4-dimethylpyrimido [4′,5′:4,5]thieno[2,3-c]pyridazin-8-yl)amino]methyl]-N-isopropyl-benzamide] | 174 nM | 88.1% | 
12 | Cc1nnc2sc3c(N4CC(Oc5cccnc5)C4)ncnc3c2c1C [Compound 356, 3,4-dimethyl-8-[3-(3-pyridyloxy)azetidin-1-yl]pyrimido[4′,5′:4,5]thieno [2,3-c]pyridazine dihydrochloride] |  |  | EC50 [2]: 1170 nM; Emax (Table 11): 32.8%
13 | Cc1nc2oc3c(NC4CC4c4ccc(F)c(F)c4)ncnc3c2c(C)c1Cl (centres unmarked) [Compound 247, 8-chloro-N-[2-(3,4-difluorophenyl)cyclopropyl]-7,9-dimethyl-pyrido [3′,2′:4,5]furo[3,2-d] pyrimidin-4-amine hydrochloride] | 7840 nM | 70% | 
14 | Cc1nnc2sc3c(NCc4ccc(C(=O)N5CC(F)(F)C5)cc4)ncnc3c2c1C [Compound 156, (3,3-difluoroazetidin-1-yl)-[4-[[(3,4-dimethlpyrimido [4′,5′:4,5]thieno[2,3-c]pyridazin-8-yl)amino]methyl]phenyl]methanone] | 590 nM | 84.9% | 
15 | Cc1nnc2sc3c(N4CCC(c5ccccc5)C4)ncnc3c2c1C (centres unmarked) [Compound 28, 3,4-dimethyl-8-(3-phenylpyrrolidin-1-yl) pyrimido[4′,5′:4,5]thieno [2,3-c]pyridazine] |  |  | Emax (Human M4): 49%
16 | Cc1nnc2sc3c(NCc4ccc(C(=O)NC(C)C5(CO)CC5)c(Cl)c4)ncnc3c2c1C (centres unmarked) [Compound 323, 2-chloro-4-[[(3,4-dimethylpyrimido [4′,5′:4,5]thieno[2,3-c]pyridazin-8-yl)amino]methyl]-N-[1-[1-(hydroxymethyl)cyclopropyl]ethyl]benzamide] |  |  | EC50 [2]: 449 nM; Emax (Table 11): 76.3%
17 | Cc1nnc2sc3c(N4CC(Oc5ccccc5F)C4)ncnc3c2c1C [Compound 31, 8-(3-(2-fluorophenoxy)azetidin-1-yl)-3,4-dimethylpyrimido [4′,5′:4,5]thieno[2,3-c] pyridazine] |  |  | Emax (Human M4): 60%; EC50 [3]: 2160 nM
18 | Cc1cc(C)c2c(n1)oc1c(NCc3cccc(C(C)(C)O)c3)ncnc12 [Compound 57, 2-[3-[[(7,9-dimethylpyrido[3′,2′:4,5]furod[3,2-]pyrimidin-4-yl)amino]methyl]phenyl] propan-2-ol] |  |  | Emax (Human M4): 23.7%; EC50 [3]: 4270 nM
19 | Cc1cc(O[C@H]2CCN(c3ncnc4c3sc3nnc(C)c(C)c34)C2)ccn1 [Compound 330, 3,4-dimethyl-8-[(3S)-3-[(2-methyl-4-pyridyl)oxy]pyrrolidin-1-yl]pyrimido [4′,5′:4,5]thieno[2,3-c] pyridazine] |  |  | EC50 [2]: 111 nM; Emax (Table 11): 74.4%
20 | COc1ccc(CNc2ncnc3c2sc2nc(C)c(Cl)c(C)c23)cc1OC [Compound 267, 8-chloro-N-[(3,4-dimethoxyphenyl)methyl]-7,9-dimethyl-pyrido[3′,2′:4,5]thieno [3,2-d]pyrimidin-4-amine hydrochloride] |  | 33.6% | EC50 (Human M4 EC50 (nM), Table 10, unit μM (bounds)): > 10000 nM
21 | Cc1nc2sc3c(N4CC(F)(F)C4)ncnc3c2c(C)c1Cl [Compound 261, 8-chloro-4-(3,3-difluoroazetidin-1-yl)-7,9-dimethyl-pyrido [3′,2′:4,5]thieno[3,2-d] pyrimidine hydrochloride] | 3920 nM | 76.2% | 
22 | Cc1ncc(CNc2ncnc3c2sc2ncc(Cl)c(C)c23)cn1 [Compound 238, 8-chloro-9-methyl-N-[(2-methylpyrimidin-5-yl)methyl]pyrido [3′,2′:4,5]thieno[3,2-d] pyrimidin-4-amine dihydrochloride] | 382 nM | 61% | 
23 | Cc1cc(C)c2c(n1)oc1c(N3CC4(COC4)C3)ncnc12 [Compound 56, 7,9-dimethyl-4-(2-oxa-6-azaspiro[3.3]heptan-6-yl)pyrido[3′,2′:4,5]furo[3,2-d]pyrimidine] |  |  | Emax (Human M4): 37.7%; EC50 [3]: 3370 nM
24 | COCC1CN(c2ncnc3c2sc2ncc(Cl)c(C)c23)C1 [Compound 218, 8-chloro-4-[3-(methoxymethyl)azetidin-1-yl]-9-methyl-pyrido [3′,2′:4,5]thieno[2,3-d] pyrimidine] | 1020 nM | 51.3% | 
25 | COc1ccc(CNc2ncnc3c2oc2nnc(C)c(C)c23)cc1 [Compound 309, N-[(4-methoxyphenyl)methyl]-3,4-dimethyl-pyrimido [4′,5′:4,5]furo[2,3-c]pyridazin-8-amine] | 403 nM | 73.6% | 
26 | Cc1nnc2sc3c(NCc4ccc(-n5cccn5)cc4)ncnc3c2c1C [Compound 345, 3,4-dimethyl-N-[(4-pyrazol-1-ylphenyl)methyl] pyrimido[4′,5′:4,5]thieno [2,3-c]pyridazin-8-amine] |  |  | EC50 [2]: 830 nM; Emax (Table 11): 87.1%
27 | Cc1cc(C)c2c(n1)sc1c(NC3CN(c4ncc(C(F)(F)F)cn4)C3)ncnc12 [Compound 207, 7,9-dimethyl-N-[1-[5-(trifluoromethyl)pyrimidin-2-yl]azetidin-3-yl]pyrido[3′,2′:4,5] thieno[3,2-d]pyrimidin-4-amine] | 6550 nM | 51.5% | 
28 | Cc1nnc2oc3c(NCc4cccc(C(C)(C)O)c4)ncnc3c2c1C [Compound 301, 2-[3-[[(3,4-dimethylpyrimido [4′,5′:4,5]furo[2,3-c]pyridazin-8-yl)amino]methyl]phenyl]propan-2-ol] |  | 63.4% | 
29 | Cc1cc(C)c2c(n1)oc1c(NC3CC3c3ccc(F)c(F)c3)ncnc12 (centres unmarked) [Compound 61, hydrochloride] |  |  | Emax (Human M4): 56.3%; EC50 [3]: 3380 nM
30 | Cc1nnc2sc3c(NCc4ccc(C(=O)N5CCOCC5)cc4)ncnc3c2c1C [Compound 123, [4-[[(3,4-dimethylpyrimido [4′,5′:4,5]thieno[2,3-c]pyridazin-8-yl)amino]methyl]phenyl]-morpholino-methanone] | 548 nM | 87.2% | 
31 | Cc1nnc2sc3c(NC4CC4)ncnc3c2c1C [Compound 25, N-cyclopropyl-3,4-dimethylpyrimido [4′,5′:4,5]thieno[2,3-c] pyridazin-8-amine] |  |  | Emax (Human M4): 79%; EC50 [3]: 468 nM
